Experimental data reported in US7491827B2, “Aryl sulfonamides useful as inhibitors of chemokine receptor activity” (Millennium Pharmaceuticals, Inc., priority 2003, dated 2009).

target: T1, cloned human CCR8 receptor stably expressed in L1.2 cells (Homo sapiens, UniProt P51685); test: whole cell binding screen: inhibition of biotinylated human I309 binding to CCR8 (FMAT 8100 HTS); settings: Ki of compounds to inhibit I-309 binding to CCR8, L1.2/hCCR8 cells, biotinylated human I-309, 10 point concentration response starting at 10 μM
T1 construct: expressed in transfected cells
Method in brief: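 L1.2 murine pre-B cells stably expressing human CCR8 (4.0×10^5 cells/mL) in HBSS/HEPES/fatty-acid-free BSA/azide buffer were mixed with biotinylated human I309 and compounds for 0.5 h, read by FMAT fluorescence. 10-point curves from 10 μM final; percent inhibition normalized to no-inhibitor and 100 nM unlabeled I309 controls.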

T1 sequence (P51685 whole entry): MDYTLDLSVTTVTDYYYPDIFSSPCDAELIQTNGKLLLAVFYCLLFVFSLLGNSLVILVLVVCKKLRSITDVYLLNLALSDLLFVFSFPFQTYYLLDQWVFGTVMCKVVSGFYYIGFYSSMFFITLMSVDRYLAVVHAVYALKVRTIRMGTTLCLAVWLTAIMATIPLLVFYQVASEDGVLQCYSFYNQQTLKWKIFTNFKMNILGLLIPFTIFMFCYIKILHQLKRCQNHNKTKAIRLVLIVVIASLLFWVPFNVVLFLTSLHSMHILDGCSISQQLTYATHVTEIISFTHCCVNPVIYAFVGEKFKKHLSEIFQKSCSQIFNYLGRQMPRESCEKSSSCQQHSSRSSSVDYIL

`CCNC(=O)N1CCC(NS(=O)(=O)c2ccc(C(=O)Nc3ccccc3C)c3ccccc23)CC1` [Compound F-10, 4-(4-o-Tolylcarbamoly-naphthalene-1-sulfonylamino)-piperidine-1-carboxylic acid ethylamide] was tested, and the Ki was < 500 nM.

same assay, conditions: L1.2/hCCR8 cells, biotinylated human I-309, 10 point concentration response starting at 10 μM; read-out: Ki of compounds to inhibit I-309 binding to CCR8

`COc1ccc(NS(=O)(=O)c2ccc(NC(=O)c3ccncc3)c3ccccc23)cc1` [Compound B-8, N-[4-(4-Methoxy-phenylsulfamoyl)-naphthalen-1-yl]-isonicotinamide] and `CCOC(=O)N1CCC(NS(=O)(=O)c2ccc(NC(=O)c3cccc(C)c3)c3ccccc23)CC1` [Compound B-13, 4-[4-(3-Methyl-benzoylamino)-naphthalene-1-sulfonylamino]-piperidine-1-carboxylic acid ethyl ester] cannot be ordered by Ki: < 1000 nM for the first, < 1000 nM for the second.

`CCOC(=O)N1CCC(NS(=O)(=O)c2ccc(NC(=O)c3ccccc3C)c3c2CCCC3=O)CC1` [Compound J-43, 4-[4-(2-Methyl-benzoylamino)-5-oxo-5,6,7,8-tetrahydro-naphthalene-1-sulfonylamino]-piperidine-1-carboxylic acid ethyl ester] and `COC(=O)N1CCC(NS(=O)(=O)c2ccc(NC(=O)c3ccccc3C)c3c2CCCC3)CC1` [Compound E-15, 4-[4-(2-Methyl-benzoylamino)-5,6,7,8-tetrahydro-naphthalene-1-sulfonylamino]-piperidine-1-carboxylic acid methyl ester] cannot be ordered by Ki: < 1000 nM for the first, < 500 nM for the second.

`CCCC(=O)N1CCC(NS(=O)(=O)c2ccc(NC(=O)C3CCCN(C)C3)c3ccccc23)CC1` [Compound D-23, 1-Methyl-piperidine-3-carboxylic acid [4-(1-butyryl-piperidin-4-ylsulfamoyl)-naphthalen-1-yl]-ainde] and `CCCC(=O)N1CCC(NS(=O)(=O)c2ccc(NC(=O)C3CCOCC3)c3ccccc23)CC1` [Compound D-20, Tetrahydro-pyran-4-carboxylic acid [4-(1-butyryl-piperidin-4-ylsulfamoyl)-naphthalen-1-yl]-amide] cannot be ordered by Ki: < 30000 nM for the first, < 500 nM for the second.

`Cc1ccccc1C(=O)Nc1ccc(S(=O)(=O)N[C@H]2CCN(C(=O)N(C)C)C[C@H]2C)c2c1CCCC2` (racemic) [Compound E-20, (±)-cis-3-Methyl-4-[4-(2-methyl-benzoylamino)-5,6,7,8-tetrahydro-naphthalene-1-sulfonylamino]-piperidine-1-carboxylic acid dimethylamide] and `CCOC(=O)N1CC[C@H](NS(=O)(=O)c2ccc(NC(=O)c3ccccc3C)c3ncccc23)[C@H](C)C1` [Compound J-40, (3R, 4S)-3-Methyl-4-[8-(2-methyl-benzoylamino)-quinoline-5-sulfonylamino]-piperidine-1-carboxylic acid ethyl ester] cannot be ordered by Ki: < 500 nM for the first, < 500 nM for the second.

`CN(C)C(=O)N1CCC(NS(=O)(=O)c2ccc(C(=O)Nc3ccccc3Cl)c3ccccc23)CC1` [Compound F-23, 4-[4-(2-Chloro-phenylcarbamoyl)-naphthalene-1-sulfonylamino]-piperidine-1-carboxylic acid dimethylamide] and `CCC(=O)N1CCC(NS(=O)(=O)c2ccc(NC(=O)c3ccccc3Cl)c3ccccc23)CC1` [Compound C-103, 2-Chloro-N-[4-(1-propionyl-piperidin-4-ylsuffamoyl)-naphthalen-1-yl]-benzamide] cannot be ordered by Ki: < 500 nM for the first, < 500 nM for the second.

`CCNC(=O)N1CCC(NS(=O)(=O)c2ccc(NC(=O)c3ccccc3C)c3ccccc23)C1` (racemic) [Compound C-52, (±)-3-[4-(2-Methyl-benzoylamino)-naphthalene-1-sulfonylamino]-pyrrolidine-1-carboxylic acid ethylamide] and `CCNC(=O)N1CCC(NS(=O)(=O)c2ccc(C(=O)NC3CCCCC3)c3ccccc23)CC1` [Compound F-8, 4-(4-Cyclohexylcarbamoyl-naphthalene-1-sulfonylamino)-piperidine-1-carboxylic acid ethylamide] cannot be ordered by Ki: < 500 nM for the first, < 500 nM for the second.
